Measurements: article PMC13128454, “Mutant p53 protein accumulation is selectively targetable by proximity-inducing drugs” (Nature Chemical Biology, 2025)
“And” between values parts separate entries of the source, which are not always exact repeats. Identical values can stand only once. Like-named read-outs stand apart in the source and are kept apart here.

How the values were obtained:
Format in all cases: cell-based
[1] = test system: parental 293T cells; experiment: caspase 3/7 glo; details: for mean_norm (caspase 3/7 glo): Cell_Line WT, normalized to Concentration 0; for raw caspase 3/7 glo signal, single replicate: WT
Protocol: (§1) Cells were plated in 384-well plates (typically 1,500 cells per well) with varying concentrations of compounds with a total volume of 50 μl per well. After 1 day, caspase 3/7 glo reagent (Promega) was added following the manufacturer’s protocol and read out using an EnVision 2105 multimode plate reader.

[2] = test system: Halo–p53-Y220C ΔTAD–mCherry 293T cells; experiment: caspase 3/7 glo; details: for mean_norm (caspase 3/7 glo): Cell_Line Y220C, normalized to Concentration 0; for raw caspase 3/7 glo signal, single replicate: Y220C
Protocol: as §1

[3] = test system: Halo–p53-Y220C ΔTAD–mCherry 293T cells; experiment: cell-cycle analysis (DNA content, DAPI flow cytometry); set-up: 4N / 8N / Right_of_Gate1 (replicates) / Right_of_Gate2 (replicates) / 2N: unit not given here; details: Y220C, 1 day
Protocol: Cells were split into a 10-cm dish at low confluency (20%) and grown overnight. Cells were synchronized using overnight treatment with palbociclib (150 nM), washed and split into a six-well plate for treatment with compound for 24 h. Cells were harvested by trypsinization, washed twice with cold 1× PBS, fixed by dropwise addition of ice-cold 70% ethanol while vortexing and incubated overnight (4 °C). Fixed samples were centrifuged at 1,000g for 5 min and 70% ethanol was removed. Cells were washed twice with 1× PBS + 1% BSA before DNA labeling with 1 µg ml^−1 DAPI for 10 min at room temperature, before being analyzed for DNA content by flow cytometry (Beckman CytoFLEX LX).

[4] = test system: Calu-1 cells stably expressing Halo–p53-R273H (FL)–mCherry versus parental Calu-1 cells; experiment: flow-cytometry growth competition; details: sheet S2E
Protocol: (§2) Cells with and without a fluorescent marker (for example, Halo–p53–mCherry) were mixed and the resulting solution was plated in six-well plates or 10-cm dishes at low density; compound was added at varying concentrations. After reaching confluence, cells were passaged and retreated with compound if needed. Otherwise, cells were trypsinized, washed and resuspended in complete growth medium in 96-well plates or tubes for flow cytometry. Untreated cell mixtures were used to establish gates separating the fluorophore^+/− populations. Analysis was conducted on a CytoFLEX LX flow cytometer.

[5] = test system: Halo–p53-Y220C ΔTAD–mCherry 293T cells versus parental 293T cells; experiment: flow-cytometry growth competition; details: for normalized_mCherry_percentage: Y220C, day 8, normalized to DMSO
Protocol: as §2

[6] = test system: MFE319 cells stably expressing sgTP53–Cas9–EGFP versus parental MFE319 cells; experiment: flow-cytometry growth competition
Protocol: as §2

[7] = CellTiter-Glo cell viability; details: human, p53_construct WT, CTG 4 days, read-out: mean (normalized viability)
Protocol: Cells were plated in 384-well plates (typically 1,500 cells per well) with varying concentrations of compounds, with a total volume of 50 μl per well. CTG reagent was added (25 μl) to the solutions, mixed and read out using an EnVision 2105 multimode plate reader.

[8] = Conc 0.38 (unit not given; p53-01 in μM, BI2536 in nM)
[9] = Conc 0.75 (unit not given; p53-01 in μM, BI2536 in nM)
[10] = Conc 1.50 (unit not given; p53-01 in μM, BI2536 in nM)
[11] = Conc 10.00 (unit not given; per b27 BI2536 in nM)

## CC[C@@H]1C(=O)N(C)c2cnc(Nc3ccc(C(=O)NC4CCN(C)CC4)cc3OC)nc2N1C1CCCC1 [BI2536]
[1]; Concentration 0.0195312
  mean_norm (caspase 3/7 glo): 0.9498
[1]; Concentration 0.0390625
  mean_norm (caspase 3/7 glo): 0.9355
[1]; Concentration 0.078125
  mean_norm (caspase 3/7 glo): 1.009
[1]; Concentration 0.15625
  mean_norm (caspase 3/7 glo): 0.7951
[1]; Concentration 0.3125
  mean_norm (caspase 3/7 glo): 0.7961
[1]; Concentration 0.625
  mean_norm (caspase 3/7 glo): 0.9439
[1]; Concentration 1.25
  mean_norm (caspase 3/7 glo): 1.163
[1]; Concentration 2.5
  mean_norm (caspase 3/7 glo): 1.635
[1]; Concentration 5
  mean_norm (caspase 3/7 glo): 1.96
[1]; Concentration 10
  mean_norm (caspase 3/7 glo): 2.136
[1]; Concentration 19.5312
  raw caspase 3/7 glo signal, single replicate: 101820 and 113248 and 111453 and 123771
[1]; Concentration 39.0625
  raw caspase 3/7 glo signal, single replicate: 126417 and 91473 and 129554 and 96056
[1]; Concentration 78.125
  raw caspase 3/7 glo signal, single replicate: 125458 and 106940 and 132813 and 113259
[1]; Concentration 156.25
  raw caspase 3/7 glo signal, single replicate: 92236 and 94370 and 93114 and 97215
[1]; Concentration 312.5
  raw caspase 3/7 glo signal, single replicate: 90006 and 94305 and 93528 and 99564
[1]; Concentration 625
  raw caspase 3/7 glo signal, single replicate: 118546 and 104034 and 117323 and 107564
[1]; Concentration 1250
  raw caspase 3/7 glo signal, single replicate: 131108 and 131356 and 152167 and 136802
[1]; Concentration 2500
  raw caspase 3/7 glo signal, single replicate: 182654 and 187485 and 215491 and 189535
[1]; Concentration 5000
  raw caspase 3/7 glo signal, single replicate: 226831 and 221170 and 240802 and 240601
[1]; Concentration 10000
  raw caspase 3/7 glo signal, single replicate: 259590 and 240701 and 269097 and 243095
[2]; Concentration 0.0195312
  mean_norm (caspase 3/7 glo): 0.7877
[2]; Concentration 0.0390625
  mean_norm (caspase 3/7 glo): 0.7982
[2]; Concentration 0.078125
  mean_norm (caspase 3/7 glo): 0.8973
[2]; Concentration 0.15625
  mean_norm (caspase 3/7 glo): 0.6969
[2]; Concentration 0.3125
  mean_norm (caspase 3/7 glo): 0.7125
[2]; Concentration 0.625
  mean_norm (caspase 3/7 glo): 0.7879
[2]; Concentration 1.25
  mean_norm (caspase 3/7 glo): 1.419
[2]; Concentration 2.5
  mean_norm (caspase 3/7 glo): 1.997
[2]; Concentration 5
  mean_norm (caspase 3/7 glo): 1.954
[2]; Concentration 10
  mean_norm (caspase 3/7 glo): 2.025
[2]; Concentration 19.5312
  raw caspase 3/7 glo signal, single replicate: 115256 and 127200 and 115855 and 132591
[2]; Concentration 39.0625
  raw caspase 3/7 glo signal, single replicate: 137775 and 105993 and 131607 and 122061
[2]; Concentration 78.125
  raw caspase 3/7 glo signal, single replicate: 135249 and 137668 and 143467 and 142866
[2]; Concentration 156.25
  raw caspase 3/7 glo signal, single replicate: 101297 and 110278 and 108541 and 114189
[2]; Concentration 312.5
  raw caspase 3/7 glo signal, single replicate: 98096 and 116170 and 98914 and 130859
[2]; Concentration 625
  raw caspase 3/7 glo signal, single replicate: 117128 and 121353 and 128759 and 123804
[2]; Concentration 1250
  raw caspase 3/7 glo signal, single replicate: 212391 and 226804 and 198553 and 246616
[2]; Concentration 2500
  raw caspase 3/7 glo signal, single replicate: 314760 and 286983 and 322612 and 319985
[2]; Concentration 5000
  raw caspase 3/7 glo signal, single replicate: 280409 and 304325 and 302507 and 330408
[2]; Concentration 10000
  raw caspase 3/7 glo signal, single replicate: 320499 and 297797 and 322913 and 320880
[3]; [8]
  2N: 59.64
  4N: 39.45
  8N: 0.91
  Right_of_Gate1 (replicates): 40.36 and 39.92 and 40.00
  Right_of_Gate2 (replicates): 0.91 and 0.89 and 1.00
[3]; [9]
  2N: 59.25
  4N: 40.16
  8N: 0.59
  Right_of_Gate1 (replicates): 40.75 and 40.54 and 40.62
  Right_of_Gate2 (replicates): 0.59 and 0.51 and 0.57
[3]; [10]
  2N: 58.82
  4N: 40.66
  8N: 0.52
  Right_of_Gate1 (replicates): 41.18 and 41.58 and 39.89
  Right_of_Gate2 (replicates): 0.52 (2×) and 0.50
[3]; [11]
  2N: 2.81
  4N: 3.65
  8N: 93.54
  Right_of_Gate1 (replicates): 97.19 and 96.75 and 95.65
  Right_of_Gate2 (replicates): 93.54 and 93.93 and 86.65
[4]; 0.1 nM
  mCherry_percent: 80.66%
[4]; 1 nM
  mCherry_percent: 80.59%
[4]; 10 nM
  mCherry_percent: 80.93%
[5]; 8-day competition
  activity / difference in cell survival in competition: did not observe any activity
[5]; 0.02 nM
  normalized_mCherry_percentage: 98.51%
[5]; 0.2 nM
  normalized_mCherry_percentage: 98.69%
[5]; 1 nM
  normalized_mCherry_percentage: 100.1%
[5]; 5 nM
  normalized_mCherry_percentage: 117.7%
[6]; Concentration (pM) 19.5312
  merge_avg (growth competition, sheet 4H): 0.9382
[6]; Concentration (pM) 78.125
  merge_avg (growth competition, sheet 4H): 0.9005
[6]; Concentration (pM) 312.5
  merge_avg (growth competition, sheet 4H): 0.9194
[6]; Concentration (pM) 1250
  merge_avg (growth competition, sheet 4H): 0.8118
[6]; day 9, p53-01 at doses between 800 nM and 1.25 μM
  enrichment of EGFP^+ (TP53-knockout) population: no such activity
[7]; Compound_conc 0.0488281
  viability at 4 days: 97%
[7]; Compound_conc 0.0976562
  viability at 4 days: 111%
[7]; Compound_conc 0.195312
  viability at 4 days: 98.9%
[7]; Compound_conc 0.390625
  viability at 4 days: 103%
[7]; Compound_conc 0.78125
  viability at 4 days: 103%
[7]; Compound_conc 1.5625
  viability at 4 days: 105%
[7]; Compound_conc 3.125
  viability at 4 days: 101%
[7]; Compound_conc 6.25
  viability at 4 days: 80.9%
[7]; Compound_conc 12.5
  viability at 4 days: 64.4%
[7]; Compound_conc 25
  viability at 4 days: 62.4%
[7]; Compound_conc 50
  viability at 4 days: 49.4%
[7]; Compound_conc 100
  viability at 4 days: 42%
